In ChEMBL document CHEMBL1129695, “Synthesis and structure-activity relationships of 6-substituted androst-4-ene analogs as aromatase inhibitors” (J Med Chem, 1996):

What was measured:
Aromatase [1] = molecular target: T1, Aromatase (Homo sapiens, UniProt P11511)
T1 sequence (P11511 whole entry): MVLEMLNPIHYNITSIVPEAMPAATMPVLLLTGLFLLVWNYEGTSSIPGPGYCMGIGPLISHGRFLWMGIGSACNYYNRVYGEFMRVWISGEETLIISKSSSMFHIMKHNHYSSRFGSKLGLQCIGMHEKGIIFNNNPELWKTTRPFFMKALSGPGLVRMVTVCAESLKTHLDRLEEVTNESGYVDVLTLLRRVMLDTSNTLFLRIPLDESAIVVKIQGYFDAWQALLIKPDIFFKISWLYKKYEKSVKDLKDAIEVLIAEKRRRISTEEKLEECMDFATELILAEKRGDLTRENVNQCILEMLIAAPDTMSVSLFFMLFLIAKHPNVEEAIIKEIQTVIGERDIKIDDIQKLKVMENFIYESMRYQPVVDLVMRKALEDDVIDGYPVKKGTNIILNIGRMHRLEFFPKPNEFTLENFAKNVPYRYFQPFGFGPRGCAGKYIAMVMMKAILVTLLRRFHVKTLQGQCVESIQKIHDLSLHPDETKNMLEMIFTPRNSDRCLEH
Description: Apparent inhibition constant (Ki) against Cytochrome P450 19A1

Aromatase [2] = molecular target: T1, Aromatase; remark: listed apart in the source
Description: In vitro inhibition of cytochrome P450 19A1 in human placental microsomes

**Q.** Which Ki (Aromatase [1]) does the source give for `CCC[C@H]1CC2C3CCC(=O)C3(C)CCC2C2(C)CCCC=C12` (some centres undefined) here?
**A.** The Ki was 30 nM.

**Q.** What about the IC50 (Aromatase [2]) of the same compound?
**A.** Its IC50 is 230 nM.

**Q.** Which results are given for `CC[C@H]1CC2C(CCC3(C)C(O)CCC23)C2(C)CCCC=C12` (some centres undefined)?
**A.** Ki (Aromatase [1]): 180 nM; IC50 (Aromatase [2]): 1300 nM

**Q.** With `CC[C@@H]1CC2C(CCC3(C)C(O)CCC23)C2(C)CCCC=C12` (some centres undefined) as the compound, how does the Ki (Aromatase [1]) read?
**A.** Its Ki is 340 nM.

**Q.** What about the IC50 (Aromatase [2]) of the same compound?
**A.** The IC50 was 3300 nM.

**Q.** What does the source list for `CC12CCCC=C1CCC1C2CCC2(C)C1CC[C@@H]2O` (some centres undefined)?
**A.** Ki (Aromatase [1]): 45 nM; IC50 (Aromatase [2]): 360 nM

**Q.** For `CCCCC[C@@H]1CC2C3CCC(=O)C3(C)CCC2C2(C)CCCC=C12` (some centres undefined), which Ki (Aromatase [1]) is on record?
**A.** The Ki was 1200 nM.

**Q.** What about the IC50 (Aromatase [2]) of the same compound?
**A.** Its IC50 is 12000 nM.

**Q.** `CO[C@@H]1CC2C3CCC(=O)C3(C)CCC2C2(C)CCCC=C12` (some centres undefined) was tested. Which Ki (Aromatase [1]) did it give?
**A.** The Ki was 12 nM.

**Q.** And the IC50 (Aromatase [2])?
**A.** Its IC50 is 130 nM.

**Q.** `CC[C@H]1CC2C3CCC(=O)C3(C)CCC2C2(C)CCCC=C12` (some centres undefined) was tested. Which Ki (Aromatase [1]) did it give?
**A.** Its Ki is 43 nM.

**Q.** And the IC50 (Aromatase [2])?
**A.** Its IC50 is 110 nM.

**Q.** Which Ki (Aromatase [1]) does the source give for `CCCCC[C@H]1CC2C3CCC(=O)C3(C)CCC2C2(C)CCCC=C12` (some centres undefined) here?
**A.** The Ki was 400 nM.

**Q.** What about the IC50 (Aromatase [2]) of the same compound?
**A.** Its IC50 is 9000 nM.

**Q.** What does the source list for `C[C@@H]1CC2C(CCC3(C)C(O)CCC23)C2(C)CCCC=C12` (some centres undefined)?
**A.** Ki (Aromatase [1]): 140 nM; IC50 (Aromatase [2]): 1600 nM

**Q.** For `CC[C@@H]1CC2C3CCC(=O)C3(C)CCC2C2(C)CCCC=C12` (some centres undefined), which Ki (Aromatase [1]) is on record?
**A.** The Ki was 43 nM.

**Q.** What about the IC50 (Aromatase [2]) of the same compound?
**A.** Its IC50 is 320 nM.

**Q.** What does the source list for `CCCCCCCC[C@@H]1CC2C3CCC(=O)C3(C)CCC2C2(C)CCCC=C12` (some centres undefined)?
**A.** Ki (Aromatase [1]): 2600 nM; IC50 (Aromatase [2]): > 50000 nM

**Q.** `CCCCCCCC[C@H]1CC2C(CCC3(C)C(O)CCC23)C2(C)CCCC=C12` (some centres undefined) was tested. Which IC50 (Aromatase [2]) did it give?
**A.** Its IC50 is over 50000 nM.

**Q.** For `C[C@@H]1CC2C3CCC(=O)C3(C)CCC2C2(C)CCCC=C12` (some centres undefined), which Ki (Aromatase [1]) is on record?
**A.** The Ki was 5.3 nM.

**Q.** And the IC50 (Aromatase [2])?
**A.** Its IC50 is 49 nM.

**Q.** Which results are given for `CCCCC[C@H]1CC2C(CCC3(C)C(O)CCC23)C2(C)CCCC=C12` (some centres undefined)?
**A.** Ki (Aromatase [1]): 44000 nM; IC50 (Aromatase [2]): > 50000 nM

**Q.** Which Ki (Aromatase [1]) does the source give for `CCCCC[C@@H]1CC2C(CCC3(C)C(O)CCC23)C2(C)CCCC=C12` (some centres undefined) here?
**A.** The Ki was 100000 nM.

**Q.** And the IC50 (Aromatase [2])?
**A.** Its IC50 is over 50000 nM.

**Q.** What does the source list for `CCCCCCCC[C@H]1CC2C3CCC(=O)C3(C)CCC2C2(C)CCCC=C12` (some centres undefined)?
**A.** Ki (Aromatase [1]): 4100 nM; IC50 (Aromatase [2]): > 50000 nM

**Q.** How did the Ki (Aromatase [1]) turn out when `CCC[C@@H]1CC2C3CCC(=O)C3(C)CCC2C2(C)CCCC=C12` (some centres undefined) was run?
**A.** The Ki was 51 nM.

**Q.** And the IC50 (Aromatase [2])?
**A.** The IC50 was 440 nM.

**Q.** Which results are given for `CC(=O)O[C@@H]1CC2C3CCC(=O)C3(C)CCC2C2(C)CCCC=C12` (some centres undefined)?
**A.** Ki (Aromatase [1]): 24 nM; IC50 (Aromatase [2]): 260 nM

**Q.** For `CC(=O)O[C@H]1CC2C3CCC(=O)C3(C)CCC2C2(C)CCCC=C12` (some centres undefined), which Ki (Aromatase [1]) is on record?
**A.** Its Ki is 18 nM.

**Q.** What about the IC50 (Aromatase [2]) of the same compound?
**A.** Its IC50 is 160 nM.

**Q.** With `C[C@H]1CC2C3CCC(=O)C3(C)CCC2C2(C)CCCC=C12` (some centres undefined) as the compound, how does the Ki (Aromatase [1]) read?
**A.** Its Ki is 3.1 nM.

**Q.** And the IC50 (Aromatase [2])?
**A.** Its IC50 is 37 nM.

**Q.** `C[C@H]1CC2C(CCC3(C)C(O)CCC23)C2(C)CCCC=C12` (some centres undefined) was tested. Which Ki (Aromatase [1]) did it give?
**A.** Its Ki is 380 nM.

**Q.** And the IC50 (Aromatase [2])?
**A.** The IC50 was 3700 nM.

**Q.** Which Ki (Aromatase [1]) does the source give for `CO[C@H]1CC2C3CCC(=O)C3(C)CCC2C2(C)CCCC=C12` (some centres undefined) here?
**A.** The Ki was 12 nM.

**Q.** And the IC50 (Aromatase [2])?
**A.** The IC50 was 120 nM.

**Q.** `CCCCCCCC[C@@H]1CC2C(CCC3(C)C(O)CCC23)C2(C)CCCC=C12` (some centres undefined) was tested. Which IC50 (Aromatase [2]) did it give?
**A.** The IC50 was over 50000 nM.
